Test results from publication PMC4514850, “A Novel TGR5 Activator WB403 Promotes GLP-1 Secretion and Preserves Pancreatic β-Cells in Type 2 Diabetic Mice” (PLoS ONE, 2015).
Entries after “also recorded” stand apart in the source; their conditions may differ.

Key:
NCI-H716 cells = experiment: active GLP-1 secretion in NCI-H716 cells; type: cell-based, human; details: 10 μmol/l, 30 min
Method: (§1) Endocrine differentiation was induced by seeding NCI-H716 cells in plates coated with Matrigel (Becton Dickinson). Cells were washed with RPMI-1640 medium without FBS and incubated in the same medium containing indicated compounds at 10 μmol/l. The condition medium was collected after 30 min. GLP-1 secretion in MIN6 or primary enterocytes was conducted similarly. To isolate primary enterocytes, ileum or colon was cut into 2 cm length, rinsed by PBS (pH7.2∼7.4) before dispersed in 10 mmol/l EDTA/PBS (pH7.4) for 15 min at room temperature, followed by pipetting up and down. Enterocytes were collected by filtration through a 70 μm cell strainer. To study the effect of WB403 on GLP-1 secretion in vivo, mice in group of three were fasted overnight and orally received 0, 50, 100 mg/kg of WB403 dispersed in 0.5% CMC with a DPP-4 inhibitor (5 mg/kg). There were 5 animals in each group. 2 g/kg glucose was administrated 30 min later and blood was collected 10 min after glucose challenge.
(§2) The GLP-1 (active) ELISA kit was purchased from Millipore, and insulin ELISA kit was from Mercodia. For quantitative determination of cAMP, a competitive enzyme immunoassay kit from R&D system was used. All immunoassays were performed according to manufacturers’ instructions.

ICR mice = experiment: GLP-1 secretion in vivo in ICR mice; details: oral 50, 100 mg/kg with DPP-4 inhibitor 5 mg/kg; blood 10 min after 2 g/kg glucose; n = 5
Method: as §1, §2

normal mice = experiment: oral glucose tolerance test in normal mice; type: in vivo; details: 4 g/kg glucose, oral 50, 100 mg/kg 30 min before load
Method: (§3) Mice were fasted overnight (14 h) before glucose tolerance tests. Normal mice received a 4 g/kg glucose challenge and for diabetic mice it’s 2 g/kg. WB403 at 50, 100 mg/kg, or sitagliptin at 100 mg/kg were administrated orally 30 min prior to glucose load (n = 10). For vehicle group, 0.5% CMC was administrated. Blood glucose levels were measured from tail bleeds with a glucometer (Roche, Accu-Chek Performa) at specified time points. Animals were treated and assessed in the order of the vehicle, WB403 50, 100 mg/kg and sitagliptin 100 mg/kg group.
(§4) Fig 2 Effects of WB403 on glucose tolerance during OGTT in normal and diabetic mice. OGTT time course and AUC in normal mice (A, B), HFD/STZ mice (C, D) and db/db mice (E, F). Values represent mean ± SD (n = 10). *p<0.05, **p<0.01, ***p<0.001 vs. vehicle group. Asterisks in A, C and E reflect significance between WB403 100 mg/kg and vehicle group.

HFD/STZ mice = experiment: oral glucose tolerance test in HFD/STZ mice; type: in vivo; details: 2 g/kg glucose, oral 50, 100 mg/kg 30 min before load
Method: For generation of nongenetic mice model of type 2 diabetes, ICR mice were fed with high fat diet (HFD, with 60% fat, Research Diets) for three weeks, then fasted for 5 h before receiving a single dose of streptozotocin (STZ, Sigma) intraperitoneally (ip) at 80 mg/kg to induce partial insulin deficiency. […] Diabetes was assessed using conventional criteria. Mice with similar degree of hyperglycemia and body weight were randomized into various groups in order to get a similar average PBG in each group.
as §3, §4

db/db mice = experiment: oral glucose tolerance test in db/db mice; type: in vivo; details: 2 g/kg glucose, oral 50, 100 mg/kg 30 min before load
Method: Five-week old male ICR mice and db/db (C57BL BKS cg-M+/+ lepr-/-) mice were purchased from Shanghai SLAC Laboratory Animal Co., Ltd. (Shanghai, China). Mice were housed 4–5 per cage and allowed access to normal chow diet and autoclaved water freely. They were fed at a constant room temperature (25°C) with a 12-h light (7:00 AM)/dark (7:00 PM) cycle. All the mice were monitored at least daily, and no adverse events were observed. In general, the db/db mice show a high food intake at 4-week old and become obese and develop type 2 diabetes at 8-week age. Postprandial 2 h blood glucose was assessed and mice with the similar degree of hyperglycemia and body weight were randomized into different groups in order to get a similar average PBG in each group.
as §3
Fig 2 Effects of WB403 on glucose tolerance during OGTT in normal and diabetic mice. […]

## CCc1cc(-c2nc(C)c(COCc3ccc(Br)cc3)s2)ccn1 [WB403, 4-(5-((4-bromobenzyloxy)-methyl)-4-methylthiazol-2-yl)-2-ethylpyridine]
NCI-H716 cells
  GLP-1 stimulation in NCI-H716 cells: much higher GLP-1 stimulation capacity; also recorded: outstanding effect in GLP-1 stimulation
ICR mice
  GLP-1 concentration in serum: significantly increased
Normal mice
  blood glucose tolerance (OGTT) vs vehicle: significant improvement in blood glucose tolerance
HFD/STZ mice
  blood glucose tolerance (OGTT) vs vehicle: The same results
db/db mice
  blood glucose tolerance (OGTT) vs vehicle: The same results
